According to PMC9125540 (Virology Journal, 2022):
Structures can show the parent of a compound that is named as a salt. Where two headings read alike, the source gives them in different places.

Assays:
[1] = system: CCL2; type: cell-based, Canine; conditions: combination treatment (co-penetration) with H1N1, 72 h; H1N1 alone 22.123 fold
[2] = system: MDCK cells; experiment: MTT cytotoxicity assay of the compounds (CC50, NCTC, selectivity index); conditions: MDCK cells, MTT, 48 h
Protocol: (§1) The cytotoxic effects of the anionic compounds on the viability of MDCK cells was measured by MTT [3-(4, 5-dimethylthiazol-2ol) 2, 5 diphenyl tetrazolium bromide] assay. Briefly, the confluent 96-well plate of MDCK cells were exposed to twofold serial dilutions of the compounds (in triplicates), 100 μl/well, and incubated for 48 h. After the incubation period, the supernatants were removed and 100 μl of 1X MTT solution (100 μl/well) was added to each well. The plates were incubated for 4 h at 37 °C. Then, 100 μl of DMSO (Samchun, Korea) was added to dissolve formazan crystals. Color adsorption in the solution was measured using an enzyme-linked immunosorbent assay (ELISA) reader (StataFax 2100, USA) at 570 nm to calculate the 50% cytotoxic concentration (CC50). The cells without treatment were used as negative control. The percentage of toxicity was calculated using the following formula:
(§2) Toxicity (%) = [100 − (ODT/ODC) × 100], where ODT and ODC refer to the absorbance of the test substance and control, respectively [34]. The 50% cytotoxic concentration (CC50) was defined as the cytotoxic concentration of compounds by regression analysis.
(§3) The non-cytotoxic concentration (NCTC) of the compounds was also determined using the same procedure and used for the antiviral assays. […] The cells with no treatment were considered as negative control.
(§4) The selectivity index (SI) is relative safety of a compound and it was obtained by dividing CC50 by NCTC in the same units.

[3] = system: IL-6; experiment: ELISA cytokine protein quantification, IL-6; type: cell-based, Canine
Protocol: (§5) MDCK cells were treated as mentioned above. Untreated cells were considered as the negative control. Cell-free supernatant was harvested following 72 h infection period and stored at − 80 °C for the cytokine analysis. In order to investigate the effect of viral infection and anionic compounds on the production of inflammatory cytokines such as IL-6, CCL2 and TNF-α as well as anti-inflammatory cytokine proteins IFN-β1 and IL-27, ELISA method was utilized. Quantitative sandwich Picokine ELISA kits (Boster Biological Technology, CA, USA) were used to detect IL-6, TNF-α and IL-27 cytokine proteins according to the manufacturer's instructions. The CCL2 and IFN-β were evaluated by sandwich Ready-SET-Go kit (Invitrogen, USA) and sandwich geneILNB1 kit (EIAab Science Co, China) according to the manufacturers’ instructions, respectively. The concentrations of the cytokines were calculated according to the corresponding reaction standard formula.
(§6) The cytokine protein levels in supernatants of MDCK cell culture at 72 h after exposure were calculated according to the reaction standard formula.
(§7) To calculate the concentration of the cytokines in cell free supernatants, firstly, the standards optical densities were measured and the standard curves were plotted. The equations of standard curves were used to estimate protein concentration in the samples.

[4] = system: IFN-β1; type: cell-based, Canine; conditions: combination treatment (co-penetration) with H1N1, 72 h; H1N1 alone 0.038 fold
[5] = system: IL-27; type: cell-based, Canine; conditions: combination treatment (co-penetration) with H1N1, 72 h; H1N1 alone 0.004 fold
[6] = system: CCL2; experiment: ELISA cytokine protein quantification, CCL2; type: cell-based, Canine
Protocol: as §5, §6, §7

[7] = system: IL-6; type: cell-based, Canine; conditions: combination treatment (co-penetration) with H1N1, 72 h; H1N1 alone 16.622 fold
[8] = system: TNF-α; experiment: ELISA cytokine protein quantification, TNF-α; type: cell-based, Canine
Protocol: as §5, §6, §7

[9] = system: IAV M gene; type: cell-based, influenza A virus
[10] = system: IL-27; experiment: ELISA cytokine protein quantification, IL-27; type: cell-based, Canine
Protocol: as §5, §6, §7

[11] = system: TNF-α; type: cell-based, Canine; conditions: combination treatment (co-penetration) with H1N1, 72 h; H1N1 alone 191.00 fold
[12] = system: IFN- β; experiment: ELISA cytokine protein quantification, IFN-β; type: cell-based, Canine
Protocol: as §5, §6, §7

[13] = MTT cytotoxicity assay of the compounds (CC50, NCTC, selectivity index); conditions: dog
Protocol: as §1, §2, §3, §4

[14] = co-penetration with H1N1, MDCK supernatant, 72 h, H1N1 alone 1243.79 ± 5.58
[15] = co-penetration with H1N1, MDCK supernatant, 72 h, H1N1 alone 523.00 ± 2.41
[16] = co-penetration with H1N1, MDCK supernatant, 72 h, H1N1 alone 941.67 ± 4.71
[17] = co-penetration with H1N1, MDCK supernatant, 72 h, H1N1 alone 26.25 ± 1.77

CC(=O)[O-].[Na+] [Acetate, sodium acetate]
CCL2 relative expression [1]: 0.094 fold | CC50 [2]: 28950 ± 4320 µg/mL | NCTC (non-cytotoxic concentration) [2]: 3.00 ± 0.00 mg/mL | NCTC (non-cytotoxic concentration) ([2]; listed as acetate): 3 mg/mL | IL-6 cytokine protein concentration (mean ± SD) [3]: 110.64 ± 0.08 pg/mL | IFN- β1 relative expression [4]: 0.049 fold | IL-27 relative expression [5]: 0.099 fold | CCL2 cytokine protein concentration (mean ± SD) [6]: 338.26 ± 0.00 pg/mL | percentage of change of CCL2 protein relative to H1N1 (mean ± SD) ([6]; co-penetration, 72 h): -72.80 ± 0.12 | IL-6 relative expression [7]: 0.020 fold | TNF-α cytokine protein concentration (mean ± SD) [8]: 222.20 ± 0.64 pg/mL | percentage of change of TNF-α protein relative to H1N1 (mean ± SD) ([8]; co-penetration, 72 h): -57.51 ± 0.32 | Ct value, IAV M gene [9]: 20.70 ± 0.30 | IL-27 cytokine protein concentration (mean ± SD) [10]: 1938.33 ± 0.00 pg/mL | percentage of change of IL-27 protein relative to H1N1 (mean ± SD) ([10]; co-penetration, 72 h): 105.84 ± 1.03 | TNF-α relative expression [11]: 4.83 fold | IFN- β cytokine protein concentration (mean ± SD) [12]: 68.96 ± 2.06 pg/mL | percentage of change of IFN- β protein relative to H1N1 (mean ± SD) ([12]; co-penetration, 72 h): 163.03 ± 9.86

NC12CC3CC(CC(C3)C1)C2 [Amantadine hydrochloride, reference compound]
CC50 at 48 h [13]: 200 ± 1530 µg/mL | NCTC (non-cytotoxic concentration) [2]: 0.10 ± 0.00 mg/mL

O=C1O[C@H]([C@@H](O)CO)C(O)=C1O [Ascorbate, ascorbic acid]
IL-6 cytokine protein concentration (mean ± SD) ([3]; co-penetration with H1N1, MDCK supernatant, 72 h, H1N1 alone 171.78 ± 0.17): 38.05 ± 0.17 pg/mL | CCL2 cytokine protein concentration (mean ± SD) [6, 14]: 309.05 ± 1.86 pg/mL | CCL2 cytokine protein concentration (mean ± SD) ([6]; co-penetration with H1N1, MDCK supernatant, 72 h, H1N1 alone 1243.79 ± 5.58, listed as Asc): 309.05 ± 1.86 pg/mL | TNF-α cytokine protein concentration (mean ± SD) [8, 15]: 284.25 ± 0.32 pg/mL | Ct value, IAV M gene ([9]; combination treatment with H1N1, supernatants of 48 h treatments, H1N1 alone 12.76 ± 0.24): No Ct value was detected | IL-27 cytokine protein concentration (mean ± SD) [10, 16]: 1833.33 ± 2.36 pg/mL | IFN- β cytokine protein concentration (mean ± SD) [12, 17]: 73.75 ± 1.77 pg/mL | IFN- β cytokine protein concentration (mean ± SD) ([12]; co-penetration with H1N1, MDCK supernatant, 72 h, H1N1 alone 26.25 ± 1.77, listed as Asc): 73.75 ± 1.77 pg/mL

O=C(O)CC(O)(CC(=O)O)C(=O)O [Citrate, sodium citrate]
NCTC (non-cytotoxic concentration) [2]: 3.00 ± 0.00 mg/mL | NCTC (non-cytotoxic concentration) ([2]; listed as citrate): 3 mg/mL | IL-6 cytokine protein concentration (mean ± SD) ([3]; co-penetration with H1N1, MDCK supernatant, 72 h, H1N1 alone 171.78 ± 0.17, listed as Cit): 126.60 ± 0.17 pg/mL | CCL2 cytokine protein concentration (mean ± SD) [6, 14]: 446.95 ± 0.37 pg/mL | TNF-α cytokine protein concentration (mean ± SD) [8, 15]: 253.45 ± 0.48 pg/mL | Ct value, IAV M gene [9]: 22.45 ± 0.75 | IL-27 cytokine protein concentration (mean ± SD) [10, 16]: 2055.00 ± 0.00 pg/mL | IL-27 cytokine protein concentration (mean ± SD) ([10]; co-penetration with H1N1, MDCK supernatant, 72 h, H1N1 alone 941.67 ± 4.71, listed as Cit): 2055.00 ± 0.00 pg/mL | IFN- β cytokine protein concentration (mean ± SD) [12, 17]: 70.62 ± 2.06 pg/mL
